Laboratory results taken from US8063071B2 (GlaxoSmithKline, LLC, priority 2007, dated 2011).

How the values were obtained:
[1] = target: T1, Recombinant human IKKβ (residues 1-737) (Homo sapiens, UniProt O14920); assay: IKK2 assay (TR-FRET); format: biochemical; conditions: ATP 1 μM final, read-out: pIC50 against IKK2 (converted)
T1 construct: Recombinant human IKKβ (residues 1-737); GST (C); made in house
T1 sequence (O14920 1-737): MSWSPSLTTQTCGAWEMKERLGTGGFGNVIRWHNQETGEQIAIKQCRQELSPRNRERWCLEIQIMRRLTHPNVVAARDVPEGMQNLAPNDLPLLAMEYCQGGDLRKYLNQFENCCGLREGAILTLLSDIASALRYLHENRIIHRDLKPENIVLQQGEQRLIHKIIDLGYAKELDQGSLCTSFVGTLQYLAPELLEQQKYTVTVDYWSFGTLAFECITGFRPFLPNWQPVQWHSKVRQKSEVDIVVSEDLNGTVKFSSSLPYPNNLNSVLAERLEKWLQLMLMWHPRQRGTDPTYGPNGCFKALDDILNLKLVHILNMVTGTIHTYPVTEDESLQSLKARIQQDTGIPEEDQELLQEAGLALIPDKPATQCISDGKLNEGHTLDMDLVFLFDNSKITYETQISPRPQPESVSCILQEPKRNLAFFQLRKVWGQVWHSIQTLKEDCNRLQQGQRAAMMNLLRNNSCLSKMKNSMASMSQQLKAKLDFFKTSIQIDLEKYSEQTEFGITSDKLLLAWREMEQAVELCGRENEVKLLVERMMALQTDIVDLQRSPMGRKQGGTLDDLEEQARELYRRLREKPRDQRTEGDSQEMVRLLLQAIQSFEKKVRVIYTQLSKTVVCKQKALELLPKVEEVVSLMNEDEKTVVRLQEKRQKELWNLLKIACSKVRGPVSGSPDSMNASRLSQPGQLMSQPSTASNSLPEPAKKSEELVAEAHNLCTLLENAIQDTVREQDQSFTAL
Method in brief: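 Baculovirus-expressed C-terminal GST-tagged IKKβ (0.5-5 nM final) in HEPES pH 7.4, MgCl2, CHAPS, DTT, BSA with 1.7% DMSO; 25 nM GST-IB substrate and 1 μM ATP, 15 min at room temperature. EDTA stop; phospho-Ser32/36 detected by Eu-antibody/APC-anti-GST TR-FRET, 665/620 nm ratio.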

[2] = tested on: human monocyte stimulated cytokine production (TNF-α); assay: Monocyte assay (LPS-stimulated TNF-α production); format: cell-based; conditions: for IC50: 24 h, 200 ng/mL LPS, TNF-α by ELISA; for inhibition at 0.3 µM: read-out: inhibition at 300 nM in the monocyte assay
Method in brief: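 Human CD14+ monocytes were purified from blood and plated at 1×10^6 cells/mL in RPMI 1640 with 10% FBS. Compound was added 30 min before stimulation with 200 ng/mL LPS (0.1% DMSO final), followed by 24 hrs at 37 C. Supernatant TNF-α was measured by ELISA, and viability by trypan blue exclusion.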

| IC50 [1] [µM] | IC50 [2] [µM] | SMILES | inhibition at 0.3 µM [2] [%] |
| --- | --- | --- | --- |
| ≤ 10 | > 1 | CCS(=O)(=O)N1CCC(c2c[nH]c3c(C(N)=O)cc(-c4ccc(N(C)C)cc4)cc23)CC1 [Example 165, 5-[4-(dimethylamino)phenyl]-3-[1-(ethylsulfonyl)-4-piperidinyl]-1H-indole-7-carboxamide] |  |
| ≤ 10 | ≤ 1.5 | CCS(=O)(=O)N1CCC(c2c[nH]c3c(C(N)=O)cc(-c4cccc(N)c4)cc23)CC1 [Example 166, 5-(3-aminophenyl)-3-[1-(ethylsulfonyl)-4-piperidinyl]-1H-indole-7-carboxamide] |  |
| ≤ 10 | ≤ 1.5 | CCS(=O)(=O)N1CCC(c2c[nH]c3c(C(N)=O)cc(-c4ccc(CN5CCCC5C)s4)cc23)CC1 (stereo not drawn) [Example 167, 3-[1-(ethylsulfonyl)-4-piperidinyl]-5-{5-[(2-methyl-1-pyrrolidinyl)methyl]-2-thienyl}-1H-indole-7-carboxamide] |  |
| ≤ 10 | ≤ 1.5 | CCNCc1ccc(-c2cc(C(N)=O)c3[nH]cc(C4CCN(S(=O)(=O)CC)CC4)c3c2)s1 [Example 168, 5-{5-[(ethylamino)methyl]-2-thienyl}-3-[1-(ethylsulfonyl)-4-piperidinyl]-1H-indole-7-carboxamide] |  |
| ≤ 10 | ≤ 1.5 | CCS(=O)(=O)N1CCC(c2c[nH]c3c(C(N)=O)cc(-c4ccc(CNC(C)C)s4)cc23)CC1 [Example 169, 3-[1-(ethylsulfonyl)-4-piperidinyl]-5-(5-{[(1-methylethyl)amino]methyl}-2-thienyl)-1H-indole-7-carboxamide] |  |
| ≤ 10 | ≤ 1.5 | CCS(=O)(=O)N1CCC(c2c[nH]c3c(C(N)=O)cc(-c4ccc(CNC5CC5)s4)cc23)CC1 [Example 170, 5-{5-[(cyclopropylamino)methyl]-2-thienyl}-3-[1-(ethylsulfonyl)-4-piperidinyl]-1H-indole-7-carboxamide] |  |
| ≤ 10 | ≤ 1.5 | CCS(=O)(=O)N1CCC(c2c[nH]c3c(C(N)=O)cc(-c4ccc(CNCC(C)(C)C)s4)cc23)CC1 [Example 171, 5-(5-{[(2,2-dimethylpropyl)amino]methyl}-2-thienyl)-3-[1-(ethylsulfonyl)-4-piperidinyl]-1H-indole-7-carboxamide] |  |
| ≤ 10 | ≤ 1.5 | CCS(=O)(=O)N1CCC(c2c[nH]c3c(C(N)=O)cc(-c4ccc(CNCC5CC5)s4)cc23)CC1 [Example 172, 5-(5-{[(cyclopropylmethyl)amino]methyl}-2-thienyl)-3-[1-(ethylsulfonyl)-4-piperidinyl]-1H-indole-7-carboxamide] |  |
| ≤ 10 |  | CCS(=O)(=O)N1CCC(c2c[nH]c3c(C(N)=O)cc(-c4cncc(CNCCOC)c4)cc23)CC1 [Example 174, 3-[1-(ethylsulfonyl)-4-piperidinyl]-5-[5-({[2-(methyloxy)ethyl]amino}methyl)-3-pyridinyl]-1H-indole-7-carboxamide] | 0 to 60 |
| ≤ 10 |  | CCS(=O)(=O)N1CCC(c2c[nH]c3c(C(N)=O)cc(-c4cncc(CNCCCOC)c4)cc23)CC1 [Example 175, 3-[1-(ethylsulfonyl)-4-piperidinyl]-5-[5-({[3-(methyloxy)propyl]amino}methyl)-3-pyridinyl]-1H-indole-7-carboxamide] | 0 to 60 |
| ≤ 10 |  | CCS(=O)(=O)N1CCC(c2c[nH]c3c(C(N)=O)cc(-c4cncc(CN5CCOCC5)c4)cc23)CC1 [Example 176, 3-[1-(ethylsulfonyl)-4-piperidinyl]-5-[5-(4-morpholinylmethyl)-3-pyridinyl]-1H-indole-7-carboxamide] | 0 to 60 |
| ≤ 10 |  | CCNCc1cncc(-c2cc(C(N)=O)c3[nH]cc(C4CCN(S(=O)(=O)CC)CC4)c3c2)c1 [Example 177, 5-{5-[(ethylamino)methyl]-3-pyridinyl}-3-[1-(ethylsulfonyl)-4-piperidinyl]-1H-indole-7-carboxamide] | 0 to 60 |
